{"source": "patent US6576464B2", "about": "“Methods for providing differentiated stem cells” (Geron Corporation, priority 2000, dated 2003)", "key": {"hTERT": {"test_system": "hTERT", "test": "hTERT expression by RT-PCR after exposure to differentiation factors", "format": "cell-based, human", "settings": "after exposure of hES cells to the factor", "description": "For radioactive relative quantification of individual gene products, QuantumRNA™ Alternate18S Internal Standard primers (Ambion, Austin Tex., USA) were employed according to the manufacturer's instructions. Briefly, the linear range of amplification of a particular primer pair was determined, then coamplified with the appropriate mixture of alternare18S primers:competimers to yield PCR products with coinciding linear ranges. Before addition of AmpliTaq™ (Roche) to PCR reactions, the enzyme was pre-incubated with the TaqStart™ antibody (ProMega) according to manufacturer's instructions. Radioactive PCR reactions were analyzed on 5% non-denaturing polyacrylamide gels, dried, and exposed to phosphoimage screens (Molecular Dynamics) for 1 hour. Screens were scanned with a Molecular Dynamics Storm 860 and band intensities were quantified using ImageQuant™ software. Results are expressed as the ratio of radioactivity incorporated into the hTERT or OCT-4 band, standardized to the radioactivity incorporated into the 18s band.\nPrimers and amplification conditions for particular markers are as follows."}, "normal BJ cells": {"test_system": "normal BJ cells", "test": "Ganciclovir treatment in vitro of normal cells carrying hTERT promoter/tk constructs", "format": "cell-based", "description": "(§1) The ability of the hTERT promoter to specifically drive the expression of the thymidine kinase (tk) gene in tumor cells was tested using a variety of constructs: One construct, designated pGRN266, contains an EcoRI-FseI PCR fragment with the tk gene cloned into the EcoRI-FseI sites of pGRN263. pGRN263, containing approximately 2.5 kb of hTERT promoter sequence, is similar to pGRN150, but contains a neomycin gene as selection marker. pGRN267 contains an EcoRI-FseI PCR fragment with the tk gene cloned into the EcoRI-FseI sites of pGRN264. pGRN264, containing approximately 210 bp of hTERT promoter sequence, is similar to pGRN176, but contains a neomycin gene as selection marker. pGRN268 contains an EcoRI-XbaI PCR fragment with the tk gene cloned into the EcoRI-XbaI (unmethylated) sites of pGRN265. pGRN265, containing approximately 90 bp of hTERT promoter sequence, is similar to pGRN175, but contains a neomycin gene as selection marker.\n(§2) These hTERT promoter/tk constructs, pGRN266, pGRN267 and pGRN268, were reintroduced into mammalian cells and tk/+stable clones (and/or mass populations) were selected. […] Ganciclovir treatment had no effect on normal BJ cells."}, "[1]": {"test_system": "tumor lines 143B, 293, HT1080, Bxpc-3', DAOY and NIH3T3", "test": "Ganciclovir treatment in vitro of tk+ tumor lines carrying hTERT promoter/tk constructs", "format": "cell-based", "settings": "tk/+ stable clones or mass populations with pGRN266, pGRN267, pGRN268", "description": "as §1, §2"}, "[2]": {"test_system": "Undifferentiated hES lines H1 and H7", "test": "Comparison of hES lines: total cell number after pGRN376 and GCV", "format": "cell-based, human", "settings": "mock-transduced cells", "description": "Undifferentiated hES of lines designated H1 and H7 cells were plated into 24 well plates (1 confluent well of a 6 well plate split into 24 wells of a 24 well plate). […] Four h after addition of the viral vector, medium was exchanged for new mEF-CM; some wells received medium supplemented with 20 AM GCV. Cells exposed to GCV were re-fed with mEF-CM containing GCV daily for 3 days. On day 4 after the initiation of GCV treatment, wells were harvested and analyzed by flow cytometry to assess changes in total cell number."}, "H9 hES cell line clones": {"test_system": "H9 hES cell line clones", "test": "Ganciclovir sensitivity screen of stable GRN376mod-transfected hES clones", "format": "cell-based, human", "settings": "ten of ninety GRN376mod clones; ganciclovir at a concentration of 30 μg", "excerpt": "To facilitate creation of stable cell lines genetically altered with the hTERT promoter/thymidine kinase construct, plasmid pGRN376 (Example X) was modified to delete most of the adenovirus sequence. The plasmid was digested with Stul and Not I, followed by blunting and re-ligation. The remaining vector contained the hTERT promoter/thymidine kinase construct, preceded by the transcription blocking sequence to prevent promotion of tk gene expression by promoter sequences upstream from the integration site in the genome. The modified vector was designated pGRN376mod.\nCultures of the H9 hES cell line were split 1:4 using PBS containing 0.5 mM EDTA, as described earlier, and plated in feeder-free culture in 6-well plates. Twenty-four hrs after plating, cells were cotransfected with 2 μg GRN376mod plus 0.5 μg of a plasmid encoding neomycin pho, using FuGENETM-6 as described above. Medium containing 200 μg/mL geneticin was added 48 h after transfection to select out transfected cells. After 7-10 days in geneticin-containing medium, 103 individual colonies were picked from the wells and individually plated in 24-well plates, which were then expanded by culturing for ˜7 days. Ninety individual clones were screened for sensitivity to the pro-drug ganciclovir at a concentration of 30 μg. […]"}, "[3]": {"test_system": "Undifferentiated H1 hES cells", "test": "Titration of GCV in TPAC vector treated hES cells", "format": "cell-based, human", "settings": "hES cells transduced with pGRN376 at MOI 30; 5, 10, 20, 30, 40 μM tested; day 2", "description": "Undifferentiated H1 cells were plated into 24 well plates (1 confluent well of a 6 well plate split into 24 wells of a 24 well plate). After 48 h, some wells were infected with pGRN376 at an MOI of 30. Four h after addition of the viral vector, medium was exchanged for new mEF-CM; some wells received medium supplemented with 5, 10, 20, 30, or 40 μM ganciclovir (GCV). Cells exposed to GCV were re-fed with MEF-CM containing GCV daily for 2 days. On day 2 after the initiation of GCV treatment, wells were harvested and analyzed by flow cytometry to assess changes in total cell number, and cell viability (measured by PI exclusion)."}, "H1 hES cells": {"test_system": "H1 hES cells", "test": "Stable transfection of feeder-free hES cells with geneticin selection", "format": "cell-based, human", "settings": "200 μg/mL in mEF-conditioned medium", "description": "To investigate whether the feeder-free hES cells undergo stable genetic modification, H1 hES cells maintained on Matrigel® were cotransfected with a mixture of 7.5 μg plasmid carrying β-galactosidase driven by the EF1a promoter, and 2.5 μg of plasmid carrying the PGK promoter driving the neophosphotransferase gene. The cells were transfected 48 h after plating them on Matrigel® in mEF-conditioned medium. 10 μg of plasmid plus 15 μl of FuGENE™ were incubated with the cells in 1 mnL for 4 h before adding 2.5 mL of mEF-conditioned medium. After 48 h, medium was exchanged for mEF-conditioned medium supplemented with 200 μg/mL geneticin. Cultures were maintained in this geneticin-containing medium with daily medium exchange for over 21 days. All mock-transfected cultures (i.e., those that received FUGENE™ mixed with water rather than plasmid) died within 48-72 h. Drug resistant colonies arose in the wells transfected with both FUGENE™ and plasmid at a frequency of about 1 in to 10^5 originally transfected cells. The colonies were maintained in geneticin-containing mEF-conditioned medium and expanded."}, "hES cells": {"test_system": "hES cells", "test": "Neuron formation from directly differentiated hES cells with neurotrophin growth factors (count of β-tubulin positive cells)", "format": "cell-based, human", "settings": "fixed after 7 days of differentiation", "description": "The effect of several members of the neurotrophin growth factor family was examined. hES cells were differentiated by harvesting with collagenase, dissociating, and reseeding onto poly-ornithine coated cover slips. The cells were plated into DMEM/F12+N2+10% FBS overnight. The following day, the serum was removed from the medium and replaced with 10 ng/mL human bFGF and the growth factor being tested. After 24 hours, bFGF was removed from the medium. These cultures were fed every other day. They were fixed after 7 days of differentiation and immunostained for analysis. The number of neurons was evaluated by counting cells positive for β-tubulin. Cultures maintained in the presence of 10 ng/mL brain derived neurotrophic factor (BDNF) formed approximately 3-fold more neurons than the control cultures. Cultures maintained in neurotrophin-3 (1 ng/mL) formed approximately 2-fold more neurons than control cultures."}}, "data": [{"molecule": "C[S+](C)[O-]", "note": "[dimethyl sulfoxide]", "values": [{"measurement": "expression of hTERT", "setting": "hTERT", "result": "markedly decreased"}]}, {"molecule": "Nc1nc(O)c2ncn(COC(CO)CO)c2n1", "note": "[ganciclovir]", "values": [{"measurement": "effect of ganciclovir treatment on normal cells", "setting": "normal BJ cells", "result": "no effect"}, {"measurement": "effect of ganciclovir treatment on tk+ tumor lines", "setting": "[1]", "result": "selective destruction of all tumor lines tested"}, {"measurement": "toxicity induced by GCV alone, H7 compared with H1", "setting": "[2]", "result": "less toxicity"}, {"measurement": "time in which essentially all undifferentiated cells died", "setting": "H9 hES cell line clones", "result": "1 to 3", "unit": "days"}, {"measurement": "optimal GCV concentration", "setting": "[3]", "result": "~20", "unit": "µM"}]}, {"molecule": "CN[C@@H]1[C@@H](O)[C@@H](O[C@@H]2[C@@H](O)[C@H](O[C@H]3O[C@H]([C@@H](C)O)[C@@H](O)[C@H](O)[C@H]3N)[C@@H](N)C[C@H]2N)OC[C@]1(C)O", "note": "[geneticin]", "values": [{"measurement": "time in which all mock-transfected cultures died", "setting": "H1 hES cells", "result": "48 to 72", "unit": "h"}]}, {"molecule": "brain derived neurotrophic factor (protein, UniProt P23560 19-247, looked up, neurotrophin growth factor) Neurotrophic factor BDNF …: APMKEANIRGQGGLAYPGVRTHGTLESVNGPKAGSRGLTSLADTFEHVIEELLDEDQKVRPNEENNKDADLYTSRVMLSSQVPLEPPLLFLLEEYKNYLDAANMSMRVRRHSDPARRGELSVCDSISEWVTAADKKTAVDMSGGTVTVLEKVPVSKGQLKQYFYETKCNPMGYTKEGCRGIDKRHWNSQCRTTQSYVRALTMDSKKRIGWRFIRIDTSCVCTLTIKRGR", "values": [{"measurement": "neurons formed relative to control cultures (cells positive for β-tubulin)", "setting": "hES cells; 10 ng/mL", "result": "approximately 3 fold"}]}, {"molecule": "neurotrophin-3 (protein, UniProt P20783 139-257, looked up, neurotrophin growth factor) Neurotrophin-3: YAEHKSHRGEYSVCDSESLWVTDKSSAIDIRGHQVTVLGEIKTGNSPVKQYFYETRCKEARPVKNGCRGIDDKHWNSQCKTSQTYVRALTSENNKLVGWRWIRIDTSCVCALSRKIGRT", "values": [{"measurement": "neurons formed relative to control cultures (cells positive for β-tubulin)", "setting": "hES cells; 1 ng/mL", "result": "approximately 2 fold"}]}]}
